Data set [1] concerns golden hamster. The experiment in a line: High-fat and high-cholesterol diet-induced hyperlipidemia model of golden hamster. The conditions noted are these: 1 time/day, 7 days, vs control group. It is filed as in vivo. The source says:
Dosing regimen: The hyperlipidemia model of golden hamster is recognized as one of the ideal animal models for studying hyperlipidemia drug therapy (pharmacodynamic evaluation). In order to preliminarily investigate the existence of potential regulatory effects of the candidate compounds on hepatic lipid metabolism homeostasis, the high-fat and high-cholesterol diet-induced hyperlipidemia model of golden hamster was utilized for preliminary pharmacodynamic evaluation. The specific protocol was as follows. 56 golden hamsters, males, were modeled on high-fat and high-cholesterol diet (Research diet, item number C11953) for two weeks, and 8 golden hamsters were reserved as blank control group. Subsequently, group administration (7 groups, n=8) was performed, i.e., model control group, positive control ETC-1002 30 mg/kg group, compound A3 10 mg/kg and 30 mg/kg group, compound A4 10 mg/kg and 30 mg/kg group, and blank control group. The compounds in each group were configured with saline (0.9% NaCl) and administered at a frequency of 1 time/day for a 7-day dosing cycle.
Indicator test: The body weight and food intake of golden hamsters were closely monitored during the administration period. After 7 days of administration, blood was collected from the orbital region of each group (starved overnight for about 16 hours), centrifuged to obtain serum, and stored in cryopreservation, and then total cholesterol and LDL cholesterol were detected in the serum. The relative amount of the relevant indexes was calculated as follows: Relative amount (100%)=the amount in the administered group/the amount in the model control group*100%.

The subject of data set [2] is ApoE−/− mice. Kind of data set: Atherosclerosis in ApoE-/- mice on high cholesterol chow, aortic plaque Sudan IV staining. The format is in vivo, mouse. On the procedure:
Dosing regimen: Hypercholesterolemia is an important trigger for the development of atherosclerosis. […] The specific scheme is as follows. 60 ApoE^−/− mice, males, were equally divided into 6 groups (n=10), of which 5 groups were fed with high cholesterol chow (Research diet, item no. D12079B) for modeling, and 1 group was set aside as a blank control group, while long-term administration of the drug was carried out, i.e., the model control group, the positive control ETC-1002 30 mg/kg group, and the compounds A3 15 mg/kg and 30 mg/kg and 60 mg/kg groups, and blank control group. The compounds in each group were configured with saline (0.9% NaCl) and administered at a frequency of 1 time/day for a 24-week dosing cycle.
Indicator test: The body weight and food intake of ApoE^−/− mice were closely monitored during the administration period. After 24 weeks of compound administration in each group, the aortic vessels of mice were stripped and Sudan IV staining of aortic plaques was performed, and the plaque area was counted with Image-Pro Plus software.

For data set [3], the system named is ob/ob mice. Kind of data set: NASH induced by high-fat, high-sugar, high-cholesterol diet in ob/ob mice. The format is in vivo, mouse. Particulars: 30 mg/kg, 1 time/day, 10 weeks. Here is the method:
Dosing regimen: 16 ob/ob mice, males, 7-8 weeks, were equally divided into 2 groups (n=8) and fed with high-fat, high-sugar, high-cholesterol diet (Research diet, item number D09100310) for 8 weeks for modeling, and a group of wild-type mice from the same litter was set up as a blank control group. Long-term drug administration was started after 8 weeks of modeling and the groups were model control group, compound A3 30 mg/kg group, and blank control group. The compounds in each group were prepared in saline (0.9% NaCl) and administered at a frequency of 1 time/day for 10 weeks.
Indicator test: The body weight and feeding changes of ob/ob mice and blank control mice were closely monitored during the administration period. After 10 weeks of administration, the livers of each group were taken and tested for NASH indicators (HE staining, Sirius red staining, immunohistochemistry for inflammatory signals, etc.).

Data set [4] is described as follows: Oral pharmacokinetics in ICR mice. It is filed as in vivo, mouse. Here is the method: Dosing regimen: 6 normal ICR mice, male, were divided into 2 groups (n=3), one group was orally given the positive control ETC-1002, and one group was orally given the tested compound A3, both administered at a dose of 30 mg/kg; blood was taken from the eye orbits at different time points before and after the administration of the drug, and the plasma drug concentration was detected.

[5] abbreviates: male, mouse, ICR mice, oral, 30 mg/kg, plasma.

Usually AUC(0-inf) stands for total exposure, with the tail of the curve extrapolated. Low readings indicate low exposure, high ones high exposure. Usually AUC(0-t) stands for exposure summed from dosing to a finite time, without extrapolation to infinity. Higher therefore signals high exposure. A word on the Cmax: it is the peak of the concentration-time curve. As a reminder, the half-life is how long it takes for the measured level to halve. Read a low half-life as fast loss. As to `CC(C)(CCCC/C=C/CCCCCC(C)(C)C(=O)O)C(=O)O` [Compound A3], in data set [1] (10 mg/kg), the “serum LDL cholesterol” value is “significantly reduce” and the serum total cholesterol entry is on record as “significantly reduce”. Moreover, in data set [1] (30 mg/kg), the “serum LDL cholesterol” value is on record as “significantly reduce” and the serum total cholesterol result is recorded as “significantly reduce”. In data set [2] (15, 30 and 60 mg/kg groups, 1 time/day, 24 weeks, vs control group), the “area of aortic plaque” value is reported as “significantly reduced”. Besides, the “improving atherosclerosis compared with ETC-1002” value in data set [2] (statement on previous studies) is “significantly better than ETC-1002”. Besides, the “liver whitening and granulomatous sensation due to excessive lipid accumulation” value in data set [3] is given as “significantly reversed”. Further, in data set [3] (vs model control), the “degree of hepatic collagen deposition (Sirius red staining)” value was “significantly reduced”; the “hepatic inflammatory cell infiltration (macrophage CD68 staining)” value was “significantly reduced”; the “liver steatosis and ballooning (H & E staining)” value is on record as “significantly reduced”. In data set [4] (setting [5]), this compound showed an AUC(0-inf) of 74200 ng·h/mL, an AUC(0-t) of 63700 ng·h/mL, a Cmax of 13400 ng/mL and a half-life of 5.65 h. Further, in data set [4] (male, mouse, ICR mice, oral, 30 mg/kg, plasma, read-out: MRT0-∞), the MRT inf is 8.01 h. Further, in data set [4] (same oral dose), the “plasma exposure relative to Bempedoic acid” value was “more than 4 times”.

The record behind these values is patent US20250144127A1, “LONG-CHAIN COMPOUND AND USE THEREOF” (Burgeon Therapeutics Co., Ltd., priority 2021, published 2025).
